“Also recorded” adds a separate entry of the source.
Key:
Type in all cases: physicochemical
[1] = Storage of methanol-moist crystal form A and conversion into crystal form C
Method: In separate containers, 5 g each of crystal form A were each stirred with 20 g of MeOH and subsequently filtered off.
At 20° C., 30° C. and 35° C., the moistened products were stored for one week and a sample taken daily. These samples were dried at 65° C. and 100 mbar and the respective methanol content subsequently determined.
Already after 2 days (35° C.), 3 days (30° C.) and 7 days (20° C.), crystal form A had converted practically completely into crystal form C (MeOH content about 6.4% by weight).

[2] = Hygroscopicity: open storage over water for one week at 25° C., water content by Karl Fischer titration; details: for Water content of the sample after storage: one week at 25° C. in sealed beaker over water, Karl Fischer titration
Method: 100 mg each of crystal forms A, B and C were separately filled into small glass vials with snap-on caps. These three glass vials with snap-on caps were placed unsealed in a glass beaker of which the bottom was covered with a small amount of water. The glass beaker was then sealed with a reversible sealing film and stored for one week at 25° C. After this storage period, the water content of the respective sample was determined by Karl Fischer titration.

[3] = Stability test of crystal form B in methanol; details: suspended in methanol, stirred 7 days at 30° C., filtered and dried
Method: 10 g of crystal form B (MeOH content<0.01%) were suspended in 100 g of methanol and stirred for 7 days at 30° C. The product was filtered and then dried overnight at 70° C. and a pressure<100 mbar. 9.1 g of a 99.4% strength product were obtained. The methanol content in the product obtained was 0.004% by weight and the acetone content was 0.0003% by weight.

[4] = Sorption/desorption curve, isothermal at 25° C.; details: for Desorption (% by weight) / Sorption (% by weight): 25° C.
Method: Sorption and desorption curves of crystal form B were measured isothermically at 25° C. The sorption curve gives the water uptake at increasing relative humidity and the desorption curve gives the drying behaviour on moisture reduction.

COc1cc(OC)nc(NC(=O)NS(=O)(=O)c2cc(NC=O)ccc2C(=O)N(C)C)n1.[Na] [Crystal form A, reference compound]
Time until practically complete conversion into crystal form C ([1]; stored at 20° C.): 7 days | Time until practically complete conversion into crystal form C ([1]; stored at 30° C.): 3 days | Time until practically complete conversion into crystal form C ([1]; stored at 35° C.): 2 days | Water content of the sample after storage ([2]; listed as crystal form A): 15.7 % by weight | Appearance of the sample after storage ([2]; one week at 25° C. over water): very ductile and sticky | Hygroscopicity (in words) ([2]; one week at 25° C. over water): hygroscopic

COc1cc(OC)nc(NC(=O)[N-]S(=O)(=O)c2cc(NC=O)ccc2C(=O)N(C)C)n1.[Na+] [Crystal form B, monosodium salt of foramsulfuron]
Methanol content in the product obtained [3]: 0.004 % by weight | Water content of the sample after storage [2]: 0.4 % by weight | Appearance of the sample after storage ([2]; one week at 25° C. over water): still crystalline and powdery | Hygroscopicity (in words) ([4]; conclusion from sorption/desorption at 25° C.): not hygroscopic; also recorded: non-hygroscopic | Desorption (% by weight) ([4]; relative humidity 10.0%): 0.846 % by weight | Sorption (% by weight) ([4]; relative humidity 10.0%): 0.100 % by weight | Desorption (% by weight) ([4]; relative humidity 20.0%): 1.227 % by weight | Sorption (% by weight) ([4]; relative humidity 20.0%): 0.201 % by weight | Desorption (% by weight) ([4]; relative humidity 30.0%): 1.495 % by weight | Sorption (% by weight) ([4]; relative humidity 30.0%): 0.313 % by weight | Desorption (% by weight) ([4]; relative humidity 40.0%): 1.760 % by weight | Sorption (% by weight) ([4]; relative humidity 40.0%): 0.444 % by weight | Desorption (% by weight) ([4]; relative humidity 50.0%): 2.086 % by weight | Sorption (% by weight) ([4]; relative humidity 50.0%): 0.566 % by weight | Desorption (% by weight) ([4]; relative humidity 60.0%): 2.269 % by weight | Sorption (% by weight) ([4]; relative humidity 60.0%): 0.684 % by weight | Desorption (% by weight) ([4]; relative humidity 70.0%): 2.485 % by weight | Sorption (% by weight) ([4]; relative humidity 70.0%): 0.864 % by weight | Desorption (% by weight) ([4]; relative humidity 80.0%): 3.016 % by weight | Sorption (% by weight) ([4]; relative humidity 80.0%): 1.085 % by weight | Desorption (% by weight) ([4]; relative humidity 90.0%): 5.151 % by weight | Sorption (% by weight) ([4]; relative humidity 90.0%): 2.335 % by weight

COc1cc(OC)nc(NC(=O)NS(=O)(=O)c2cc(NC=O)ccc2C(=O)N(C)C)n1.[Na] [Crystal form C]
Water content of the sample after storage ([2]; listed as crystal form C): 21.3 % by weight

Reference: patent US20180022711A1, “NOVEL CRYSTAL FORMS OF THE MONOSODIUM SALT OF FORAMSULFURON” (BAYER CROPSCIENCE AKTIENGESELLSCHAFT, priority 2014, published 2018)
